Each structure is given as a SMILES string.

The test system of experiment [1] is HCT-116. As to the kind of experiment: In vitro cell proliferation assay. The experiment is classed as cell-based. As to conditions: Homo sapiens; HCT-116, 72 hours of treatment; read-out: Cell Antiproliferation IC50. How it is done:
In Vitro Cell Proliferation Assay
The human colon cancer cell line HCT-116 was seeded at 5000 cells/cm2 in 24 wells plate (Costar) using F12 medium (Gibco) supplemented with 10% FCS (EuroClone, Italy) 2 mM L-glutamine and 1% penicillin/streptomycin and maintained at 37° C., 5% CO2 and 96% relative humidity. The following day, plates were treated in duplicates with 5 ul of an appropriate dilution of compounds starting from a 10 mM stock in DMSO. Two untreated control wells were included in each plate. After 72 hours of treatment, medium was withdrawn and cells detached from each well using 0.5 ml of 0.05% (w/v) Trypsin, 0.02% (w/v) EDTA (Gibco). Samples were diluted with 9.5 ml of Isoton (Coulter) and counted using a Multisizer 3 cell counter (Beckman Coulter). Data were evaluated as percent of the control wells: % of CTR=(Treated−Blank)/(Control−Blank).
IC50 values were calculated by LSW/Data Analysis using Microsoft Excel sigmoidal curve fitting.

The test system of experiment [2] is HCT-116. Put plainly: In vitro cell cycle analysis. Type of experiment: cell-based, human. As to conditions: HCT-116, 200 nM, treated for 24 hours. How it is done:
In Vitro Cell Cycle Analysis
The human colon cancer cell line HCT-116 was seeded at 5000 cells/cm2 in 24 wells plate (Costar) and cultured as mentioned above. Cells in their exponential phase of growth were treated for 24 hours with different concentrations of compound. Also, culture medium supernatant was collected to avoid loss of detached apoptotic or mitotic cells. Thereafter, cells were washed using PBS and detached by 0.05% (w/v) trypsin, 0.02% (w/v) EDTA (Gibco). Trypsin activity was stopped using culture medium. Adherent and non-adherent cell fractions were pooled and centrifuged at 2000 rpm for 10 minutes. Cells were re-suspended in PBS and counted using a Multisizer 3 cell counter (Beckman Coulter). For fixation, ethanol was added (70%, v/v) and cells were kept at −20° C. overnight.
One million fixed cells were centrifuged at 2000 rpm for 5 minutes and washed with PBS and subsequently stained for 1 hour at room temperature in the dark by adding 200 µl: 25 µg/ml propidium iodide (Sigma) and 15 ug/ml RNAse A (Sigma), 0.001% (v/v) Nonidet P40 (Sigma) in sodium citrate (0.1% w/v, pH 7.5). Samples were analyzed by flow cytometry at 488 nm excitation (FACSCalibur, Beckton Dickinson) using Cell Quest 3.0 software (Beckton Dickinson). Typically 10000 events (activating doubles discriminate module DDM and gating only single cells) were collected and cell cycle profiles were recorded using CellQuest (Verity Software). Cell Cycle distribution of the population was calculated using a modified model in Modfit 3.1 software (Verity Software) and expressed in % G0/G1, S, G2/M and polyploidy.

Experiment [3] has as its target T1, Aurora-2 (Homo sapiens, UniProt O14965).
T1 sequence (O14965 1-403): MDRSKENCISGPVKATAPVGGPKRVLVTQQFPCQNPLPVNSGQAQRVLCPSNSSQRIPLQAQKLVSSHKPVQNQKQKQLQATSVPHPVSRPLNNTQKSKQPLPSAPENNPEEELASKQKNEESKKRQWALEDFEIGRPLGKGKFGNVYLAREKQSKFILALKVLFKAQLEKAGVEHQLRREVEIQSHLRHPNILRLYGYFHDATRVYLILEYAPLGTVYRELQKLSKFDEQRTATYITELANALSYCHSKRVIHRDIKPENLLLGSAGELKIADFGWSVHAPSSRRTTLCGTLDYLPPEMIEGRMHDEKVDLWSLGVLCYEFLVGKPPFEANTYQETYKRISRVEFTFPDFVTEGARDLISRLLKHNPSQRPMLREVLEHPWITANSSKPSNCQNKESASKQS
Put plainly: Inhibition assay of Aurora-2 activity (SPA). Type of experiment: biochemical. Particulars: 10 μM ATP, 60 minutes at room temperature. The protocol: The inhibiting activity and the potency of selected compounds is determined through a method of assay based on the use of the SPA technology (Amersham Pharmacia Biotech). The assay consists of the transfer of radioactivity labelled phosphate moiety by the kinase to a biotinylated substrate. The resulting 33P-labelled biotinylated product is allowed to bind to streptavidin-coated SPA beads (biotin capacity 130 pmol/mg), and light emitted was measured in a scintillation counter.
Inhibition Assay of Aurora-2 Activity
Kinase reaction: 8 μM biotinylated peptide (4 repeats of LRRWSLG), 10 μM ATP (0.5 uCi P^33γ-ATP), 7.5 ng Aurora 2, inhibitor in a final volume of 30 μl buffer (HEPES 50 mM pH 7.0, MgCl2 10 mM, 1 mM DTT, 0.2 mg/ml BSA, 3 μM orthovanadate) were added to each well of a 96 U bottom well plate. After 60 minutes at room temperature incubation, reaction was stopped and biotinylated peptide captured by adding 100 μl of bead suspension.
Stratification: 100 μl of CsCl2 5 M were added to each well and let stand 4 hour before radioactivity was counted in the Top-Count instrument.
IC50 determination: inhibitors were tested at different concentrations ranging from 0.0015 to 10 μM. Experimental data were analyzed by the computer program GraphPad Prizm using the four parameter logistic equation: y=bottom+(top−bottom)/(1+10^((log IC50−x)*slope)) where x is the logarithm of the inhibitor concentration, y is the response; y starts at bottom and goes to top with a sigmoid shape.

With `CO[C@@H](C(=O)N1Cc2[nH]nc(NC(=O)c3ccc(N4CCN(C)CC4)cc3)c2C1)c1ccccc1` [Compound (1), N-{5-[(2R)-2-methoxy-2-phenylethanoyl]-1,4,5,6-tetrahydropyrrolo[3,4-c]pyrazol-3-yl}-4-(4-methylpiperazin-1-yl)benzamide], the IC50 in experiment [1] was 31 nM. For the same molecule, the “Cell Cycle block (% G2/M + polyploidy at 200 nM)” value in experiment [2] is 90%.
In the case of `CO[C@@H](C(=O)N1Cc2[nH]nc(NC(=O)c3ccc(N4CCN(C)C(C)C4)cc3)c2C1)c1ccccc1` (stereo partly drawn) [Compound (5), 4-(3,4-dimethylpiperazin-1-yl)-N-{5-[(2R)-2-methoxy-2-phenylethanoyl]-1,4,5,6-tetrahydropyrrolo[3,4-c]pyrazol-3-yl}benzamide], the IC50 was found to be 18 nM in experiment [3] and 50 nM in experiment [1]. Moreover, the “Cell Cycle block (% G2/M + polyploidy at 200 nM)” value in experiment [2] was determined as 90%.
Turning to `CO[C@@H](C(=O)N1Cc2[nH]nc(NC(=O)c3ccc(N4CCCCC4)cc3)c2C1)c1ccccc1` [Compound (6), N-{5-[(2R)-2-methoxy-2-phenylethanoyl]-1,4,5,6-tetrahydropyrrolo[3,4-c]pyrazol-3-yl}-4-piperidin-1-ylbenzamide], the IC50 came to 37 nM in experiment [3] and 30 nM in experiment [1]. For the same molecule, the “Cell Cycle block (% G2/M + polyploidy at 200 nM)” value in experiment [2] turned out to be 90%.
For the molecule `C[C@@H](C(=O)N1Cc2[nH]nc(NC(=O)c3ccc(N4CCN(C)CC4)cc3)c2C1)c1ccccc1` [Compound (11), N-{5-[(2R)-2-methyl-2-phenylethanoyl]-1,4,5,6-tetrahydropyrrolo[3,4-c]pyrazol-3-yl}-4-(4-methylpiperazin-1-yl)benzamide], the values for the IC50 in experiment [3] and in experiment [1] were 63 nM and 17 nM, respectively. Also, in experiment [2], the “Cell Cycle block (% G2/M + polyploidy at 200 nM)” value is reported as 90%.
For the molecule `CN1CCN(c2ccc(C(=O)Nc3[nH]nc4c3CN(C(=O)Cc3ccccc3)C4)cc2)CC1` [Reference compound, N-{5-phenylacetyl-4,6-dihydropyrrolo[3,4-c]pyrazol-3-yl}-4-(4-methylpiperazino)benzamide, reference compound], the IC50 came out at 140 nM in experiment [3] and 220 nM in experiment [1]. In experiment [2], the “Cell Cycle block (% G2/M + polyploidy at 200 nM)” value came out at 33%.

The values are drawn from US7582628B2, “Pyrrolo[3,4-c]pyrazole derivatives active as kinase inhibitors, process for their preparation and pharmaceutical compositions comprising them” (Pfizer Italia S.r.l., priority 2003, dated 2009).
